From patent publication US20250327028A1, “ENGINEERED PLATELETS AS TARGETED PROTEIN DEGRADERS” (Wisconsin Alumni Research Foundation, priority 2024, published 2025)

How the values were obtained:
[1] = system: 4T1-Luc tumors; assay: Treatment efficacy in post-surgery BALB/c mice with orthotopic 4T1-Luc breast cancer; assay type: in vivo; details: 2×10^8 platelets i.v. or free HAC 5 mg/kg i.p., every third day for 4 times
Excerpt: Evaluation of treatment efficacy and biosafety in post-surgical 4T1 tumor-bearing mice: Post-surgery BALB/c mice with orthotopic 4T1-Luc-breast cancer were used to evaluate the tumor recurrence, metastasis, and biosafety profiles after iDePLT or eDePLT treatments. The treatment efficacy of iDePLT was also studied in the post-surgery NSG mice with orthotopic patient-derived xenografts (PDX) breast cancer.
Establishment of post-surgery models with BALB/c mice: 1×10^6 4T1-Luc cells were suspended in a PBS containing 50% Matrigel® (Corning®/354234). Female 8-week-old BALB/c mice were anesthetized and injected with 50 μL of the cell suspensions into the fourth mammary gland fat pads. After the tumor volumes reached about 100-200 mm^3, the tumor-bearing mice were anesthetized and placed under the microscope, followed by surgical resection to totally remove the visible tumor tissues. Following wound closure, the post-surgery mice were randomly assigned to different treatment groups.
Evaluation of treatment efficacy and biosafety in post-surgery BALB/c mice: As for the treatments with platelets, the platelets were freshly isolated from the healthy female BALB/c mice and suspended in PBS for intravenous (i.v.) injection after the necessary engineering. The free iHAC and eHAC were intraperitoneally (i.p.) injected after dispersing in the formulation of 10% DMSO, 40% polyethylene glycol 300 (PEG300), 5% Tween TM-80, and 45% saline. From the same day after surgery, the mice were anesthetized and i.p. injected with D-luciferin potassium salt (150 mg/kg) in 100 μL in PBS. The bioluminescence of post-surgery mice in each group was detected by Perkin Elmer IVIS every five days from the day of surgery, and intensity was analyzed by Living Image Software v.4.3.1. […] During the treatment course, the body weight of each post-surgery mouse was monitored daily. […]

[2] = target: T1, PD-L1 (Mus musculus, UniProt Q9EP73); assay: Immunoblot analysis of PD-L1 degradation in 4T1 cells after free HAC treatment; assay type: cell-based, murine
T1 construct: endogenous in cells; host or cells: 4T1
T1 sequence (Q9EP73 19-290): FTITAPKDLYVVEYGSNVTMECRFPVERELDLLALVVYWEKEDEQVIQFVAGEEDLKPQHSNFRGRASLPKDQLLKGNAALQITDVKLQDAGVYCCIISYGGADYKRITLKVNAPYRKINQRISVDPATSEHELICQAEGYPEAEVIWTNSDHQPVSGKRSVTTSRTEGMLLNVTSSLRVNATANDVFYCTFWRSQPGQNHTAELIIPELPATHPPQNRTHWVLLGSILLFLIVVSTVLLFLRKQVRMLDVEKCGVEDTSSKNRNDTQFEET
Excerpt: (§1) Immunoblot analysis: Immunoblot analysis was used to evaluate the expression of BRD4, HSP90, HSP90a, and PD-L1 in 4T1, WT MDA-MB-231, HSP90α-KO MDA-MB-231 or PEA-10 cells after various treatments and also served as the detection method for IP or co-IP experiments. The procedures for preparing IP or co-IP samples were indicated in the relevant experimental parts.
Sample preparation for various cancer cells after free HAC treatment: Various cells, including 4T1, WT MDA-MB-231, HSP90α-KO MDA-MB-231, or PEA-10 cells, were seeded in 6-well culture plates with a density of 5×10^4 cells in each well and cultured for 24 h. Then, if HAI pretreatment was performed, the cells were incubated in the HAI-containing blank medium at different concentrations for 2 h and washed with PBS twice before the following treatments. The medium in the corresponding wells was replaced with 1 mL of blank medium containing the DMSO vehicle, HACs, or the combinations of various free ligands at the predetermined concentrations. After incubation for the indicated time points, cells were washed with PBS and lysed on ice with the relevant lysis buffer containing PMSF (1 mM) and the phosphatase inhibitor cocktail for 30 min. As for the conditioned medium (CM), the culturing complete medium of the corresponding cancer cells in each well was collected after 24-h incubation and subjected to centrifugation at 2000 rpm for 5 min to obtain the supernatant. The filtrate of the supernatants was collected following filtration over a 0.45 μm filter, serving as the CM. Regarding the cell samples for BRD4 detection, the lysis buffer containing HEPES-KOH (pH=7.5, 10 mM), NaCl (500 mM), EDTA (5 mM), NP-40 (1%), and SDS (0.1%) was used with the indicated PMSF and phosphatase inhibitor cocktail. As for PD-L1 detection, RIPA buffer (Thermo Fisher Scientific/J63306.AP) was used with the indicated PMSF and phosphatase inhibitor cocktail.
General procedures for immunoblot analysis: After a 30-min lysis, the lysates were centrifuged at 10,000 g for 10 minutes at 4° C., and the corresponding supernatants were collected, followed by quantification of the total proteins in the supernatant through the BCA assay. Afterward, the proteins in the supernatant were mixed with the loading buffer and heated at 95° C. for 15 min. Equal amounts of proteins from different samples ([…]) were loaded into the Bis-Tris gel formulated with Bis-Tis buffer, 30% acrylamide/Bis, 10% ammonium persulfate (APS) solution, and TEMED. […] Finally, the bands were treated with electrochemiluminescence (ECL) western blot substrate, detected by the iBright™ imaging system and quantified with ImageJ software. […]

[3] = target: T2, PD-L1 (Homo sapiens, UniProt Q9NZQ7); assay: PD-L1 degradation in HSP90α-KO MDA-MB-231 cells; assay type: cell-based
T2 construct: endogenous in cells; host or cells: HSP90α-KO MDA-MB-231
T2 sequence (Q9NZQ7 19-290): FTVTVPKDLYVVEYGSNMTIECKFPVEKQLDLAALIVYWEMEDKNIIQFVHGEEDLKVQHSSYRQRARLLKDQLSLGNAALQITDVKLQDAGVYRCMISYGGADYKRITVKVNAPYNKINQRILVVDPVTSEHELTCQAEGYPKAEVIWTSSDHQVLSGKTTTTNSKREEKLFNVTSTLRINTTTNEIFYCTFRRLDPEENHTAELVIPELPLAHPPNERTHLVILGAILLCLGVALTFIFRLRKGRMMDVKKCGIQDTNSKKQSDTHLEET
Excerpt: as §1
(§2) Sample preparation for various cancer cells after free HAC treatment: Various cells, including 4T1, WT MDA-MB-231, HSP90α-KO MDA-MB-231, or PEA-10 cells, were seeded in 6-well culture plates with a density of 5×10^4 cells in each well and cultured for 24 h. Then, if HAI pretreatment was performed, the cells were incubated in the HAI-containing blank medium at different concentrations for 2 h and washed with PBS twice before the following treatments. […]
(§3) General procedures for immunoblot analysis: After a 30-min lysis, the lysates were centrifuged at 10,000 g for 10 minutes at 4° C., and the corresponding supernatants were collected, followed by quantification of the total proteins in the supernatant through the BCA assay. […] Finally, the bands were treated with electrochemiluminescence (ECL) western blot substrate, detected by the iBright™ imaging system and quantified with ImageJ software. […]

[4] = target: T2, PD-L1; assay: PD-L1 distribution in WT MDA-MB-231 cells (fluorescence observation); assay type: cell-based; details: 2 h, compared to PU-H71 plus BMS-1166
Procedure: PD-L1 distribution in WT MDA-MB-231 cells: 5×10^4 WT MDA-MB-231 cells were seeded in a confocal dish and cultured for 24 h at 37° C. Then, the cells were treated with eHAC or the combination of PU-H71 plus BMS-1166 at 0.5 μM for 2 h. Subsequently, the cells were washed with PBS twice and fixed with 4% PFA at room temperature for 20 min. The following procedures were the same as the above colocalization observation except for replacing the anti-LAMP1 antibody with rabbit anti-PD-L1 antibody (Invitrogen/PA5-20343).

[5] = system: 4T1-Luc tumors; assay: Flow cytometry and ELISA of infiltrated effector T cells and cytokines within tumor tissues of post-surgery mice; assay type: in vivo, BALB/c mice; details: flow cytometry, two weeks after last treatment
Procedure: Flow cytometry analysis and ELISA assay were adopted to study the infiltrated effector T cells and immune-associated cytokines within the tumor tissues. The same post-surgery mouse models were established and randomly divided into 4 groups (n=5), which were i.v. injected with PBS, nPLT (2×10^8 platelets), eDePLT (2×10^8 platelets), and free eHAC (5 mg/kg) every three days for four times starting from day 1 post-surgery. After 2 weeks of the last treatment, the tumor tissues were isolated, weighed, and cut into small pieces, which were then soaked in 2 mL blank medium containing collagenase (MilliporeSigma/C5138) and incubated at 37° C. for 1 h. The cell suspensions were centrifugated at 1200 rpm for 3 min, and 200 μL of the corresponding supernatants were collected and subjected to ELISA analysis for IFN-γ and TNF-α. The single cell suspensions were collected through filtration of the suspension over 40 µm nylon cell strainer (Falcon®/352340). For the staining, 1×10^6 cells for each sample were collected and incubated with 100 μL of PBS containing PE anti-mouse CD3 antibody and APC anti-mouse CD8a antibody in the dark for 30 min at 4° C. Then, the samples were centrifuged at 2,000 rpm for 5 min at room temperature. The pellets were resuspended in PBS and subjected to the flow cytometry analysis.

[6] = target: T1, PD-L1; assay: Immunoblot analysis of PD-L1 expression in LRP-1-deficient PEA-10 cells; assay type: cell-based, murine; details: PEA-10 (LRP-1-deficient), various concentrations, 8 h, CM
Excerpt: as §1, §2, §3

In the case of `Cc1c(COc2cc(OCc3cccc(C#N)c3)c(CN3C[C@H](O)C[C@@H]3C(=O)NCCOCc3cn(CCCC(=O)N(CC#N)S(=O)(=O)c4ccc(C(=O)NCCCn5c(Sc6cc7c(cc6I)OCO7)nc6c(N)ncnc65)cc4)nn3)cc2Cl)cccc1-c1ccc2c(c1)OCCO2` [eHAC, (2R,4R)—N-(2-((1-(4-((4-((3-(6-amino-8-((6-iodobenzo[d][1,3]dioxol-5-yl)thio)-9H-purin-9-yl)propyl)carbamoyl)-N-(cyanomethyl)phenyl)sulfonamido)-4-oxobutyl)-1H-1,2,3-triazol-4-yl)methoxy)ethyl)-1-(5-chloro-2-((3-cyanobenzyl)oxy)-4-((3-(2,3-dihydrobenzo[b][1,4]dioxin-6-yl)-2-methylbenzyl)oxy)benzyl)-4-hydroxypyrrolidine-2-carboxamide], the “tumor recurrence at the surgical site (bioluminescence)” value [1] is reported as “same severe relapse”, the “PD-L1 expression in presence of lysosome degradation inhibitor leupeptin” value ([2]; 4T1 cells, 5 μM, 8 h) is reported as “rescue effect on PD-L1 expression” and the “PD-L1 expression, eHAC dispersed in blank medium (BM)” value ([2]; 4T1 cells, blank medium) is reported as “just slightly reduced the PD-L1 expression within 12 h”. The “PD-L1 levels, eHAC suspended in conditioned medium (CM)” value ([2]; 4T1 cells, conditioned medium, same time points) was “could efficiently downregulate PD-L1 levels”, the “time and concentration dependence of PD-L1 reduction” value ([2]; conditioned medium) was “in a time- and concentration-dependent manner” and the PD-L1 degradation potency [3] was “considerably compromised”. The PD-L1 distribution [4] was “rapidly aggregated into punctate structures and moved towards cytosol”, the “infiltration / ratio of CD3+CD8+ T cells in tumor tissues” value [5] was “slightly elevated the ratio of CD3^+CD8^+ T cells” and the PD-L1 degradation [6] was “failed to induce obvious PD-L1 degradation”.
